The target in one assay is T1, human GlyT1c transporter (Homo sapiens, UniProt P48067).
T1 construct: expressed in transfected cells; host or cells: CHO cells (recombinant; line hGlyT1c_5_CHO is named for the uptake assay)
T1 sequence (P48067 1-706): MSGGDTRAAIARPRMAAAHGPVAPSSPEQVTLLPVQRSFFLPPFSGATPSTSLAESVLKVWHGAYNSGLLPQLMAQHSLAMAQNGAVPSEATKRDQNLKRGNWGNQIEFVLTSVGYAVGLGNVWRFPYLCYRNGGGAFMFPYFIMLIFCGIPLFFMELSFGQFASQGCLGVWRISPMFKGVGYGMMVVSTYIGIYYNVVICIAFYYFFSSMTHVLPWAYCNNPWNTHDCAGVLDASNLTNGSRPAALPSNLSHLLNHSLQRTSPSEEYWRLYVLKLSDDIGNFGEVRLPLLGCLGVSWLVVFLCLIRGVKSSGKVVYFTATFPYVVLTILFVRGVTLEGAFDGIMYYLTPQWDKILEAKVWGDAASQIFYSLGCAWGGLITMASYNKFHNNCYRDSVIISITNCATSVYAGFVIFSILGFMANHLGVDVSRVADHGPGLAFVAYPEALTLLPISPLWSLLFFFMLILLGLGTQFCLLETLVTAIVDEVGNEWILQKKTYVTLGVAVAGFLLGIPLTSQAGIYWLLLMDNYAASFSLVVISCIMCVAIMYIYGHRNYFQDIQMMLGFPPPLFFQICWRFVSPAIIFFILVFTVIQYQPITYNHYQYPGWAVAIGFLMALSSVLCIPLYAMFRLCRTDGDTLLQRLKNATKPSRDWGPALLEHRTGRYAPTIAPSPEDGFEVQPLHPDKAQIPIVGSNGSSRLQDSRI
Briefly: Radioligand binding assay using recombinant CHO cell membranes expressing human GlyT1. Particulars: radioligand binding to human GlyT1c transporter-expressing membranes. An excerpt: 2. Radioligand binding assays using recombinant CHO cell membranes expressing human GlyT1: […]
Consider `CCCCCNC(=O)[C@@H]1CN(S(=O)(=O)c2cn(C)cn2)C[C@H]1c1ccc(F)cc1` (relative stereo) [Example 626, Trans-4-(4-fluorophenyl)-1-[(1-methyl-1H-imidazol-4-yl)sulfonyl]-N-pentylpyrrolidine-3-carboxamide], for which the Ki was no more than 1000 nM.
The same measure, in the same setting: the result for `Cn1cnc(S(=O)(=O)N2C[C@@H](Nc3cc(C(F)(F)F)cnn3)[C@H](c3ccc(F)cc3)C2)c1` (relative stereo) [Example 383, N-{trans-4-(4-fluorophenyl)-1-[(1-methyl-1H-imidazol-4-yl)sulfonyl]pyrrolidin-3-yl} -5 - (trifluoromethyl)pyridazin-3-amine] reads no more than 1000 nM.
With `CCCC(CCN[C@H]1CN(S(=O)(=O)c2cn(C)cn2)C[C@@H]1c1ccccc1)OC` (stereo partly drawn) [Example 674, (3R,4S)-N-(3-methoxyhexyl)-1-[(1-methyl-1H-imidazol-4-yl)sulfonyl]-4-phenylpyrrolidin-3-amine], the inhibitory constant (Ki) is no more than 1000 nM.
Take `Cn1cnc(S(=O)(=O)N2C[C@@H](C(=O)c3cccc(C(F)(F)F)c3)[C@H](c3ccc(F)cc3)C2)c1` (relative stereo) [Example 302, {trans-4-(4-fluorophenyl)-1-[(1-methyl-1H-imidazol-4-yl)sulfonyl]pyrrolidin-3-yl}[3-(trifluoromethyl)phenyl]methanone]: the Ki was no more than 100 nM.
Still for that read-out and setting: under `Cn1cnc(S(=O)(=O)N2C[C@@H](C(=O)NCc3ccc(F)c(F)c3)[C@H](c3ccc(F)cc3)C2)c1` (relative stereo) [Example 631, Trans-N-(3,4-difluorobenzyl)-4-(4-fluorophenyl)-1-[(1-methyl-1H-imidazol-4-yl)sulfonyl]pyrrolidine-3-carboxamide] stands no more than 10 nM; under `Cn1cnc(S(=O)(=O)N2C[C@@H](Nc3cccc(C(F)(F)F)c3)[C@H](c3ccccc3)C2)c1` (relative stereo) [Example 67, trans-1-[(1-methyl-1H-imidazol-4-yl)sulfonyl]-4-phenyl-N-[3-(trifluoromethyl)phenyl]pyrrolidin-3-amine], no more than 10 nM.
On the same count and under the same terms, the result for `Cn1cnc(S(=O)(=O)N2C[C@H](NC(=O)CCCC(F)(F)F)[C@@H](c3ccc(F)cc3)C2)c1` [Example 698, 5,5,5-trifluoro-N-{(3R,4S)-4-(4-fluorophenyl)-1-[(1-methyl-1H-imidazol-4-yl)sulfonyl]pyrrolidin-3-yl}pentanamide] reads no more than 1000 nM; that for `Cn1cnc(S(=O)(=O)N2C[C@@H](C(=O)NCc3ccc(Cl)cc3)[C@H](c3ccc(F)cc3)C2)c1` (relative stereo) [Example 629, Trans-N-(4-chlorobenzyl)-4-(4-fluorophenyl)-1-[(1-methyl-1H-imidazol-4-yl)sulfonyl]pyrrolidine-3-carboxamide], no more than 1000 nM; that for `Cn1cnc(S(=O)(=O)N2C[C@H](NCc3cccn4ccnc34)[C@@H](c3ccccc3)C2)c1` [Example 535, (3R,4S)-N-(imidazo[1,2-a]pyridin-8-ylmethyl)-1-[(1-methyl-1H-imidazol-4-yl)sulfonyl]-4-phenylpyrrolidin-3-amine], no more than 10000 nM.
Regarding `Cn1cnc(S(=O)(=O)N2C[C@@H](Nc3cccc(C(F)(F)F)c3)[C@H](C3CCCCO3)C2)c1` (relative stereo) [Example 681, Trans-1-[(1-methyl-1H-imidazol-4-yl)sulfonyl]-4-(tetrahydro-2H-pyran-2-yl)-N-[3-(trifluoromethyl)phenyl]pyrrolidin-3-amine], the Ki was no more than 10 nM.
As for `Cn1cnc(S(=O)(=O)N2CC(c3ccccc3)C(Cc3cccc(Cl)c3)C2=O)c1` (centres unmarked) [Example 331, 3-(3-chlorobenzyl)-1-[(1-methyl-1H-imidazol-4-yl)sulfonyl]-4-phenylpyrrolidin-2-one], the Ki is no more than 1000 nM.
Same read-out and setting: under `Cn1cnc(S(=O)(=O)N2C[C@H](NCCCC(F)(F)F)[C@@H](c3ccccc3)C2)c1` [Example 426, (3R,4S)-1-[(1-methyl-1H-imidazol-4-yl)sulfonyl]-4-phenyl-N-(4,4,4-trifluorobutyl)pyrrolidin-3-amine] stands no more than 1000 nM; under `Cn1cnc(S(=O)(=O)N2C[C@H](Nc3cc(OCC4CCNC4)ncn3)[C@@H](c3ccc(F)cc3)C2)c1` (stereo partly drawn) [Example 779, N-{(3R,4S)-4-(4-fluorophenyl)-1-[(1-methyl-1H-imidazol-4-yl)sulfonyl]pyrrolidin-3-yl}-6-(pyrrolidin-3-ylmethoxy)pyrimidin-4-amine], no more than 10000 nM.
Still for that read-out and setting: under `Cn1cc(S(=O)(=O)N2C[C@@H](NC(=O)c3cccc(C(F)(F)F)c3Cl)[C@H](c3ccccc3)C2)c(C(F)(F)F)n1` (relative stereo) [Example 38, 2-chloro-N-[trans-1-{[1-methyl-3-(trifluoromethyl)-1H-pyrazol-4-yl]sulfonyl}-4-phenylpyrrolidin-3-yl]-3-(trifluoromethyl)benzamide] stands no more than 10000 nM.
The same measure, in the same setting: the result for `Cn1cnc(S(=O)(=O)N2C[C@H](NCc3cc4cc(F)ccc4s3)[C@@H](c3ccccc3)C2)c1` [Example 568, (3R,4S)-N-[(5-fluoro-1-benzothiophen-2-yl)methyl]-1-[(1-methyl-1H-imidazol-4-yl)sulfonyl]-4-phenylpyrrolidin-3-amine] reads no more than 100 nM; that for `Cn1cnc(S(=O)(=O)N2C[C@H](Nc3cc(OCc4ccccc4)ncn3)[C@@H](c3ccc(F)cc3)C2)c1` [Example 774, 6-(benzyloxy)-N-{(3R,4S)-4-(4-fluorophenyl)-1-[(1-methyl-1H-imidazol-4-yl)sulfonyl]pyrrolidin-3-yl}pyrimidin-4-amine], no more than 100 nM; that for `Cn1cnc(S(=O)(=O)N2C[C@@H](Nc3cccnc3)[C@H](c3ccccc3)C2)c1` (relative stereo) [Example 208, N-{trans-1-[(1-methyl-1H-imidazol-4-yl)sulfonyl]-4-phenylpyrrolidin-3-yl}pyridin-3-amine], no more than 10000 nM.
For the molecule `CCCc1cc(N[C@H]2CN(S(=O)(=O)c3cn(C)cn3)C[C@@H]2c2ccc(F)cc2)ncn1` [Example 616, N-{(3R,4S)-4-(4-fluorophenyl)-1-[(1-methyl-1H-imidazol-4-yl)sulfonyl]pyrrolidin-3-yl}-6-propylpyrimidin-4-amine], the Ki is no more than 1000 nM.
Same read-out and setting: the result for `Cn1cnc(S(=O)(=O)N2C[C@@H](NC(=O)c3ccc(C(F)(F)F)cc3Cl)[C@H](c3ccc(F)cc3)C2)c1` (relative stereo) [Example 62, 2-chloro-N-{trans-4-(4-fluorophenyl)-1-[(1-methyl-1H-imidazol-4-yl)sulfonyl]pyrrolidin-3-yl}-4-(trifluoromethyl)benzamide] reads no more than 100 nM; that for `Cc1cccc(-c2cc(N[C@H]3CN(S(=O)(=O)c4cn(C)cn4)C[C@@H]3c3ccc(F)cc3)ncn2)c1` [Example 724, N-{(3R,4S)-4-(4-fluorophenyl)-1-[(1-methyl-1H-imidazol-4-yl)sulfonyl]pyrrolidin-3-yl}-6-(3-methylphenyl)pyrimidin-4-amine], no more than 100 nM.
On the same count and under the same terms, under `Cc1cc(N[C@@H]2CN(S(=O)(=O)c3cn(C)cn3)C[C@H]2[C@@H]2CCCOC2)ccc1F` (mixture of isomers) [Example 790, Trans-N-(4-fluoro-3-methylphenyl)-1-[(1-methyl-1H-imidazol-4-yl)sulfonyl]-4-[(3S)-tetrahydro-2H-pyran-3-yl]pyrrolidin-3-amine] stands no more than 1000 nM; under `Cn1cnc(S(=O)(=O)N2C[C@@H](NC(=O)c3ccccc3)[C@H](c3ccccc3)C2)c1` (relative stereo) [Example 25, N-{trans-1-[(1-methyl-1H-imidazol-4-yl)sulfonyl]-4-phenylpyrrolidin-3-yl}benzamide], no more than 10000 nM.
Take `CC(C)CCN[C@H]1CN(S(=O)(=O)c2cn(C)cn2)C[C@@H]1c1ccccc1` [Example 463, (3R,4S)-N-(3-methylbutyl)-1-[(1-methyl-1H-imidazol-4-yl)sulfonyl]-4-phenylpyrrolidin-3-amine]: the Ki was no more than 1000 nM.
On the same count and under the same terms, the result for `Cn1cnc(S(=O)(=O)N2C[C@@H](NC(=O)c3cccc(F)c3)[C@H](c3ccccc3)C2)c1` (relative stereo) [Example 18, 3-fluoro-N-{trans-1-[(1-methyl-1H-imidazol-4-yl)sulfonyl]-4-phenylpyrrolidin-3-yl}benzamide] reads no more than 10000 nM; that for `C=CCO[C@@H]1CN(S(=O)(=O)c2cn(C)cn2)C[C@H]1Nc1cccc(Cl)c1` (relative stereo) [Example 402, Trans-N-(3-chlorophenyl)-1-[(1-methyl-1H-imidazol-4-yl)sulfonyl]-4-(prop-2-en-1-yloxy)pyrrolidin-3-amine], no more than 10000 nM.

The assay is the same for the next values; noted with them: radioligand binding, recombinant CHO cell membranes expressing human GlyT1c.
For `Cn1cnc(S(=O)(=O)N2C[C@@H](Nc3cccc(OCC(F)(F)F)c3)[C@H](C3CCCO3)C2)c1` (relative stereo) [Example 819, Trans-1-[(1-methyl-1H-imidazol-4-yl)sulfonyl]-4-(tetrahydrofuran-2-yl)-N-[3-(2,2,2-trifluoroethoxy)phenyl]pyrrolidin-3-amine], the inhibition constant Ki is no more than 100 nM.

The values are drawn from patent publication EP2970215B1, “PYRROLIDINE DERIVATIVES, PHARMACEUTICAL COMPOSITIONS CONTAINING THEM, AND THEIR USE IN THERAPY” (AbbVie Deutschland GmbH & Co. KG, priority 2013, dated 2014).
